Results published in US10538487B2, “Sulfonylureas and related compounds and use of same” (priority 2015, dated 2020).
Like-named read-outs stand apart in the source and are kept apart here.

Assays:
[1] = biological target: NLRP3 inflammasome (Mus musculus, UniProt Q8R4B8); experiment: Inhibition of IL-1β release, NLRP3 inflammasome activation assay in BMDM; assay type: cell-based; details: inhibition of IL-1β release, read-out: Avg. IL-1β IC50 Murine BMDM
Method: The following assays can be used to determine inhibitory activity of test compounds on the NLRP3 inflammasome using common stimuli such as adenosine triphosphate, nigericin, LeuLeu-OMe or monosodium urate crystals (MSU).
Mouse bone marrow-derived macrophages (BMDM) were derived from bone marrow progenitors isolated from the femurs and tibias of C57BL/6 mice.
BMDM are seeded at 1×10^5/ml. The following day the overnight medium is replaced and cells are stimulated with Ultrapure lipopolysaccharide from Escherichia coli K12 strain (InvivoGen) for 3 h. Medium is removed and replaced with serum free medium (SFM) containing test compound 30 min prior to NLRP3 stimulation. […] ATP can be sourced from Sigma Aldrich, nigericin and MSU from Invivogen and LeuLeu-Ome from Chem-Impex International.
For ELISA and cell death assays cells are seeded in 96 well plates. Supernatants are removed and analysed using ELISA kits according to the manufacturer's instructions (DuoSet® R&D Systems, ReadySetGo!® eBioscience, BD OptEIA™, or Perkin Elmer AlphaLISA®). Cell death is assessed by measurement of LDH release relative to a 100% cell lysis control using the CytoTox96® non-radioactive cytotoxicity assay (Promega).

[2] = biological target: NLRP3 inflammasome (Homo sapiens, UniProt Q96P20); experiment: Inhibition of IL-1β release, NLRP3 inflammasome activation assay in HMDM; assay type: cell-based; details: inhibition of IL-1β release, read-out: Avg. IL-1β IC50 HMDM
Sequence of NLRP3 inflammasome (Homo sapiens, UniProt Q96P20) (Q96P20 whole entry): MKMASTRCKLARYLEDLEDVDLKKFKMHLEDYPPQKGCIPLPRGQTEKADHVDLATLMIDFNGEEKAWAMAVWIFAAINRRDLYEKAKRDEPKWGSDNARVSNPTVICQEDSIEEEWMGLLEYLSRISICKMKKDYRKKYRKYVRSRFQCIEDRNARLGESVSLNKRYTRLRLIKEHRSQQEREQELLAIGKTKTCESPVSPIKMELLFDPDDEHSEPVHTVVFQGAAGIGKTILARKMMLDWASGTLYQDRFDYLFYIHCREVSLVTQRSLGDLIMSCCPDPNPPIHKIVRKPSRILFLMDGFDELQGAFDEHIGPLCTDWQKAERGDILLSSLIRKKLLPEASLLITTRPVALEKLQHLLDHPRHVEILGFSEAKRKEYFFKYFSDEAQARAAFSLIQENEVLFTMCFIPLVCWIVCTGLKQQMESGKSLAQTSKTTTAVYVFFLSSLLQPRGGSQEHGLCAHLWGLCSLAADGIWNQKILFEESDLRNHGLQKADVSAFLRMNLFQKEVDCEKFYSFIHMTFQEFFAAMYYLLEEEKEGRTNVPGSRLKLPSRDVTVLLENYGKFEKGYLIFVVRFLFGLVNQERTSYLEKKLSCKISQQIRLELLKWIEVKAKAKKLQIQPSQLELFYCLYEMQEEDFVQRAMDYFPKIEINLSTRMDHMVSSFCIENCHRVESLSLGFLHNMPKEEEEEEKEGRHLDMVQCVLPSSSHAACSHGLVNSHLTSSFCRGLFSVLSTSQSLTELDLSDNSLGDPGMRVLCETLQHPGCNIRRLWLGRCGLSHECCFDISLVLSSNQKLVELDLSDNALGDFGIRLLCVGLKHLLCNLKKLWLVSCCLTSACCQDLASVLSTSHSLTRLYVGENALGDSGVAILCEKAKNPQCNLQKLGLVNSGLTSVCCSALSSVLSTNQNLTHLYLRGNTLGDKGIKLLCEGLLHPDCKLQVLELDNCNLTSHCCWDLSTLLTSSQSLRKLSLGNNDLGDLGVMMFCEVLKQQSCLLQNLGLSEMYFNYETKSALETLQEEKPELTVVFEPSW
Procedure, shortened: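 Primary human monocyte-derived macrophages from CD14+ buffy-coat monocytes, seeded at 1×10^5/ml. Compound added in serum-free medium 30 min before NLRP3 stimulation (ATP, nigericin, LeuLeu-OMe or MSU). Cytokine in supernatants measured by ELISA or AlphaLISA; cell death by LDH release relative to full lysis.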

Sequence of NLRP3 inflammasome (Mus musculus, UniProt Q8R4B8) (Q8R4B8 whole entry): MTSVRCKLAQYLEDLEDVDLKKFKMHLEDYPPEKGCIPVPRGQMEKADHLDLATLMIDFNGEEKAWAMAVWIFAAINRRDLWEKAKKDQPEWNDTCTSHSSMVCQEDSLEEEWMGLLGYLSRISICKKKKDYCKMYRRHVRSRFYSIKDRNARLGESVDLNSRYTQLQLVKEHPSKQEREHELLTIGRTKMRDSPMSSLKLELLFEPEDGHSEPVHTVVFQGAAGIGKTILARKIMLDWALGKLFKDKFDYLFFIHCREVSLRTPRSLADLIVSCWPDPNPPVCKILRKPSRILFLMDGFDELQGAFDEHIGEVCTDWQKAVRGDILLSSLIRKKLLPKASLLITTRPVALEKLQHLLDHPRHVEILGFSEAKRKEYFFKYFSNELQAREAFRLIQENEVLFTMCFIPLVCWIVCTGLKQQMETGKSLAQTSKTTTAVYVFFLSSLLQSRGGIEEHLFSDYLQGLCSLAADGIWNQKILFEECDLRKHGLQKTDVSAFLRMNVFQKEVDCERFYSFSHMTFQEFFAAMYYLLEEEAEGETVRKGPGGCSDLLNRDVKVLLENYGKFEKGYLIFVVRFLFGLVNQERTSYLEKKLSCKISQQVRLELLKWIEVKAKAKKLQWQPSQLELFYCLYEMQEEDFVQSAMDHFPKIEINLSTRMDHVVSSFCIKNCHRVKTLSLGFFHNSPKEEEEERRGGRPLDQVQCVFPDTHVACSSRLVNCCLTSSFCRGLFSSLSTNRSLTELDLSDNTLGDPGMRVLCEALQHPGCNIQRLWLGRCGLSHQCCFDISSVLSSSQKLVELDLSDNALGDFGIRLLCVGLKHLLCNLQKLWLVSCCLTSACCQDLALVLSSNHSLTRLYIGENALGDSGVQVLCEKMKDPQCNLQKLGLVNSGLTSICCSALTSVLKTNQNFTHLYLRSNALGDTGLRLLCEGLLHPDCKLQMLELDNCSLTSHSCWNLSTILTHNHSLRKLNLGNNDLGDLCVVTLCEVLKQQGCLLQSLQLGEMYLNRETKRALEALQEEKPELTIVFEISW

SMILES | IC50 ([1]; class symbols) | IC50 ([2]; class symbols) | IC50 ([1]; numeric bounds) | IC50 ([2]; numeric bounds)
CC(C)n1cc(S(=O)(=O)NC(=O)Nc2c3c(cc4c2CCC4)CCC3)nn1 [N-((1,2,3,5,6,7-hexahydro-s-indacen-4-yl)carbamoyl)-1-isopropyl-1H-1,2,3-triazole-4-sulfonamide] | < 1 µM | < 0.1 µM | – | –
O=C(Nc1c2c(cc3c1CCC3)CCC2)NS(=O)(=O)c1ccc2c(c1)CCC2 [N-((1,2,3,5,6,7-hexahydro-s-indacen-4-yl)carbamoyl)-2,3-dihydro-1H-indene-5-sulfonamide] | < 0.1 µM | < 10 µM | – | –
O=C(Nc1c2c(cc3c1CCC3)CCC2)NS(=O)(=O)c1cccc(OC(F)(F)F)c1 [N-((1,2,3,5,6,7-hexahydro-s-indacen-4-yl)carbamoyl)-3-(trifluoromethoxy)benzenesulfonamide] | < 1 µM | < 1 µM | – | –
O=C(Nc1c2c(cc3c1CCC3)CCC2)NS(=O)(=O)c1cccc(C(F)(F)F)c1 [N-((1,2,3,5,6,7-hexahydro-s-indacen-4-yl)carbamoyl)-3-(trifluoromethyl)benzenesulfonamide] | < 1 µM | < 0.1 µM | – | –
COc1ccc2c(c1)C(=O)N(CCc1ccc(S(=O)(=O)NC(=O)Nc3c4c(cc5c3CCC5)CCC4)cc1)C(=O)C2(C)C [N-((1,2,3,5,6,7-hexahydro-s-indacen-4-yl)carbamoyl)-4-(2-(7-methoxy-4,4-dimethyl-1,3-dioxo-3,4-dihydroisoquinolin-2(1H)-yl)ethyl)benzenesulfonamide] | < 1 µM | < 10 µM | – | –
O=C(Nc1c2c(cc3c1CCC3)CCC2)NS(=O)(=O)c1ccc(CCNc2ccc([N+](=O)[O-])c3nonc23)cc1 [N-((1,2,3,5,6,7-hexahydro-s-indacen-4-yl)carbamoyl)-4-(2-((7-nitrobenzo[c][1,2,5]oxadiazol-4-yl)amino)ethyl)benzenesulfonamide] | < 1 µM | < 1 µM | – | –
C=C(C)c1coc(S(=O)(=O)NC(=O)Nc2c3c(cc4c2CCC4)CCC3)c1 [N-((1,2,3,5,6,7-hexahydro-s-indacen-4-yl)carbamoyl)-4-(prop-1-en-2-yl)furan-2-sulfonamide] | < 1 µM | < 1 µM | – | –
CC(C)(O)c1coc(S(=O)(=O)NC(=O)Nc2ccc(C(F)(F)F)cc2C(F)(F)F)c1 [N-((2,4-bis(trifluoromethyl)phenyl)carbamoyl)-4-(2-hydroxypropan-2-yl)furan-2-sulfonamide] | < 1 µM | < 10 µM | – | –
CC(C)(O)c1coc(S(=O)(=O)NC(=O)Nc2cc(C(F)(F)F)ccc2C(F)(F)F)c1 [N-((2,5-bis(trifluoromethyl)phenyl)carbamoyl)-4-(2-hydroxypropan-2-yl)furan-2-sulfonamide] | < 1 µM | < 10 µM | – | –
Cc1cc(C)nc(NC(=O)NS(=O)(=O)c2cc(C(C)(C)O)co2)n1 [N-((4,6-dimethylpyrimidin-2-yl)carbamoyl)-4-(2-hydroxypropan-2-yl)furan-2-sulfonamide] | – | – | > 10 µM | > 50 µM
CC(C)n1ccc(S(=O)(=O)NC(=O)Nc2c(C3CC3)cc(Cl)cc2C2CC2)n1 [N-((4-chloro-2,6-dicyclopropylphenyl)carbamoyl)-1-isopropyl-1H-pyrazole-3-sulfonamide] | < 1 µM | < 1 µM | – | –
CCc1cc(Cl)cc(CC)c1NC(=O)NS(=O)(=O)c1ccn(C(C)C)n1 [N-((4-chloro-2,6-diethylphenyl)carbamoyl)-1-isopropyl-1H-pyrazole-3-sulfonamide] | < 10 µM | < 10 µM | – | –
CC(C)c1cc(Cl)cc(C(C)C)c1NC(=O)NS(=O)(=O)c1cc2ccccc2s1 [N-((4-chloro-2,6-diisopropylphenyl)carbamoyl)benzo[b]thiophene-2-sulfonamide] | < 1 µM | < 0.1 µM | – | –
CC(C)c1cc(Cl)cc(C(C)C)c1NC(=O)NS(=O)(=O)c1cc2ccccc2o1 [N-((4-chloro-2,6-diisopropylphenyl)carbamoyl)benzofuran-2-sulfonamide] | < 0.1 µM | < 0.1 µM | – | –
